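Growth conditions: 96-well plates. Treatment: test compound, 48 hours, 5 concentrations. Analysis: linear interpolation between bracketing concentrations; unreached endpoints set to highest concentration. GI50 = concentration required for 50% inhibition of growth. At the TGI there is no net growth.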
Assays:
Assay in all cases: DTP human tumour cell line panel, 48 h
SF-295 CNS = system: SF-295 CNS
SW-620 colon = system: SW-620 colon
UO-31 renal = system: UO-31 renal
LOX IMVI melanoma = system: LOX IMVI melanoma
CAKI-1 renal = system: CAKI-1 renal
SNB-75 CNS = system: SNB-75 CNS
MALME-3M melanoma = system: MALME-3M melanoma
SK-MEL-5 melanoma = system: SK-MEL-5 melanoma
NCI-H522 lung = system: NCI-H522 lung
SF-539 CNS = system: SF-539 CNS

C/C1=C\CC[C@@](C)(O)[C@@H]2CC3[C@@H](OC(=O)C34CC4)[C@@H](O2)[C@H](C)CCC1 (stereo not given in full)
GI50 (SF-295 CNS): 17.3 µM | TGI (SF-295 CNS): 34.4 µM | GI50 (SW-620 colon): 35200 nM | TGI (SW-620 colon): > 100 µM | GI50 (UO-31 renal): 15300 nM | TGI (UO-31 renal): 29.9 µM | GI50 (LOX IMVI melanoma): 6090 nM | TGI (LOX IMVI melanoma): 25.8 µM | GI50 (CAKI-1 renal): 18 µM | TGI (CAKI-1 renal): 34.4 µM | GI50 (SNB-75 CNS): 41900 nM | TGI (SNB-75 CNS): > 100 µM | GI50 (MALME-3M melanoma): 13500 nM | TGI (MALME-3M melanoma): 39.3 µM | GI50 (SK-MEL-5 melanoma): 10600 nM | TGI (SK-MEL-5 melanoma): 30.7 µM | GI50 (NCI-H522 lung): 12.7 µM | TGI (NCI-H522 lung): 28.5 µM

CC(C)[C@@H](COC(C)(C)C)N=CN1CCc2c([nH]c3ccccc23)C1
TGI (SF-295 CNS): > 100 µM | TGI (SW-620 colon): > 100 µM | TGI (UO-31 renal): > 100 µM | TGI (LOX IMVI melanoma): > 100 µM | TGI (SF-539 CNS): > 100 µM | TGI (SNB-75 CNS): > 100 µM | TGI (SK-MEL-5 melanoma): > 100 µM | TGI (NCI-H522 lung): > 100 µM

CS(=O)(=O)Nc1cc(-c2ccc3ncnc(Nc4ccc5c(cnn5Cc5ccc(F)cc5)c4)c3c2)cnc1Cl
GI50 (SF-295 CNS): 2.06 µM | TGI (SF-295 CNS): 9.61 µM | GI50 (SW-620 colon): 2500 nM | TGI (SW-620 colon): 12.8 µM | GI50 (LOX IMVI melanoma): 1180 nM | TGI (LOX IMVI melanoma): 3.27 µM | GI50 (SF-539 CNS): 1500 nM | TGI (SF-539 CNS): 5.29 µM | GI50 (SNB-75 CNS): 211 nM | TGI (SNB-75 CNS): 2.97 µM | GI50 (MALME-3M melanoma): 441 nM | TGI (MALME-3M melanoma): 2.92 µM | GI50 (SK-MEL-5 melanoma): 1520 nM | TGI (SK-MEL-5 melanoma): 2.89 µM | GI50 (NCI-H522 lung): 1.79 µM | TGI (NCI-H522 lung): 12.8 µM

CCOc1ccc(NC(=O)CC2SC(N)=NC2=O)cc1 (stereo not given)
TGI (SF-295 CNS): > 100 µM | TGI (SW-620 colon): > 100 µM | TGI (UO-31 renal): > 100 µM | TGI (LOX IMVI melanoma): > 100 µM | TGI (SNB-75 CNS): > 100 µM | TGI (MALME-3M melanoma): > 100 µM | TGI (SK-MEL-5 melanoma): > 100 µM

N#CC1C(N)=NNC12Nc1ccccc1N2 (stereo not given)
GI50 (SF-295 CNS): 18.8 µM | TGI (SF-295 CNS): 69.4 µM | GI50 (SW-620 colon): 26800 nM | TGI (SW-620 colon): > 100 µM | GI50 (UO-31 renal): 11500 nM | TGI (UO-31 renal): 84.9 µM | GI50 (LOX IMVI melanoma): 26700 nM | TGI (LOX IMVI melanoma): > 100 µM | GI50 (CAKI-1 renal): 11.7 µM | TGI (CAKI-1 renal): 74.5 µM | GI50 (SNB-75 CNS): 24800 nM | TGI (SNB-75 CNS): > 100 µM | GI50 (SK-MEL-5 melanoma): 4110 nM | TGI (SK-MEL-5 melanoma): 21.2 µM

CCOC(=O)/C(C#N)=C1\N[C@H](C(=O)OCC)CO1
TGI (SF-295 CNS): > 100 µM | TGI (SW-620 colon): > 100 µM | TGI (UO-31 renal): > 100 µM | TGI (LOX IMVI melanoma): > 100 µM | TGI (SF-539 CNS): > 100 µM | TGI (CAKI-1 renal): > 100 µM | TGI (MALME-3M melanoma): > 100 µM | TGI (SK-MEL-5 melanoma): > 100 µM | TGI (NCI-H522 lung): > 100 µM

Cc1cc(N2CCCC2)nc(N(CCCNc2ccnc3cc(Cl)ccc23)Cc2ccc3c(c2)OCO3)n1
GI50 (SF-295 CNS): 1.16 µM | TGI (SF-295 CNS): 2.89 µM | GI50 (SW-620 colon): 1210 nM | TGI (SW-620 colon): 2.87 µM | GI50 (UO-31 renal): 677 nM | TGI (UO-31 renal): 3.71 µM | GI50 (LOX IMVI melanoma): 1030 nM | TGI (LOX IMVI melanoma): 2.35 µM | GI50 (SF-539 CNS): 1230 nM | TGI (SF-539 CNS): 2.6 µM | GI50 (SNB-75 CNS): 1540 nM | TGI (SNB-75 CNS): 4.33 µM | GI50 (MALME-3M melanoma): 1650 nM | TGI (MALME-3M melanoma): 3.2 µM | GI50 (SK-MEL-5 melanoma): 1530 nM | TGI (SK-MEL-5 melanoma): 2.9 µM | GI50 (NCI-H522 lung): 1.66 µM | TGI (NCI-H522 lung): 3.95 µM

COc1ccc2cc3n(c2c1)CCc1cc(OC)c(OC)cc1-3
TGI (SF-295 CNS): > 100 µM | TGI (SW-620 colon): > 100 µM | TGI (UO-31 renal): > 100 µM | TGI (LOX IMVI melanoma): > 100 µM | TGI (SF-539 CNS): > 100 µM | TGI (CAKI-1 renal): > 100 µM | TGI (NCI-H522 lung): > 100 µM

Nc1nc(OCc2ccccc2)nc2[nH]ncc12
GI50 (SF-295 CNS): 16.9 µM | TGI (SF-295 CNS): 31.1 µM | GI50 (SW-620 colon): 18900 nM | TGI (SW-620 colon): 39.3 µM | GI50 (UO-31 renal): 20000 nM | TGI (UO-31 renal): > 100 µM | GI50 (LOX IMVI melanoma): 15000 nM | TGI (LOX IMVI melanoma): 36.2 µM | GI50 (SF-539 CNS): 23300 nM | TGI (SF-539 CNS): 47.7 µM | GI50 (CAKI-1 renal): 11.1 µM | TGI (CAKI-1 renal): 33.2 µM | GI50 (SK-MEL-5 melanoma): 14900 nM | TGI (SK-MEL-5 melanoma): 28.3 µM | GI50 (NCI-H522 lung): 25.5 µM | TGI (NCI-H522 lung): > 100 µM

CC1CC2(CC[C@@H]1O)OCCO2 (stereo not given in full)
TGI (SF-295 CNS): > 100 µM | TGI (SW-620 colon): > 100 µM | TGI (UO-31 renal): > 100 µM | TGI (LOX IMVI melanoma): > 100 µM | TGI (SF-539 CNS): > 100 µM | TGI (CAKI-1 renal): > 100 µM | TGI (MALME-3M melanoma): > 100 µM | TGI (SK-MEL-5 melanoma): > 100 µM | TGI (NCI-H522 lung): > 100 µM

CC1=CC(=O)C(C(C)=Nc2ccccc2Cl)C(=O)O1 (stereo not given)
GI50 (SF-295 CNS): > 100 µM | TGI (SF-295 CNS): > 100 µM | GI50 (SW-620 colon): > 100000 nM | TGI (SW-620 colon): > 100 µM | GI50 (UO-31 renal): > 100000 nM | TGI (UO-31 renal): > 100 µM | GI50 (LOX IMVI melanoma): > 100000 nM | TGI (LOX IMVI melanoma): > 100 µM | GI50 (SF-539 CNS): > 100000 nM | TGI (SF-539 CNS): > 100 µM | GI50 (CAKI-1 renal): > 100 µM | TGI (CAKI-1 renal): > 100 µM | GI50 (MALME-3M melanoma): > 100000 nM | TGI (MALME-3M melanoma): > 100 µM | GI50 (SK-MEL-5 melanoma): > 100000 nM | TGI (SK-MEL-5 melanoma): > 100 µM | GI50 (NCI-H522 lung): > 100 µM | TGI (NCI-H522 lung): > 100 µM

Cn1cc(-c2ccc3c(c2)CCN3C(=O)Cc2cccc(C(F)(F)F)c2)c2c(N)ncnc21
GI50 (SF-295 CNS): 8.08 µM | TGI (SF-295 CNS): 25.3 µM | GI50 (SW-620 colon): 4890 nM | TGI (SW-620 colon): 20.8 µM | GI50 (UO-31 renal): 673 nM | TGI (UO-31 renal): 14.3 µM | GI50 (LOX IMVI melanoma): 3120 nM | TGI (LOX IMVI melanoma): 16.3 µM | GI50 (SF-539 CNS): 1950 nM | TGI (SF-539 CNS): 11.8 µM | GI50 (CAKI-1 renal): 1.52 µM | TGI (CAKI-1 renal): 40.3 µM | GI50 (SNB-75 CNS): 2760 nM | TGI (SNB-75 CNS): 19 µM | GI50 (MALME-3M melanoma): 2030 nM | TGI (MALME-3M melanoma): 13.3 µM | GI50 (NCI-H522 lung): 10.1 µM | TGI (NCI-H522 lung): 29 µM

CC[CH2][Pb]([CH2]CC)([CH2]CC)[NH]S(=O)(=O)c1ccc(C)cc1
GI50 (SF-295 CNS): 0.0898 µM | TGI (SF-295 CNS): 0.203 µM | GI50 (SW-620 colon): 36.4 nM | TGI (SW-620 colon): 0.345 µM | GI50 (UO-31 renal): 143 nM | TGI (UO-31 renal): 0.274 µM | GI50 (LOX IMVI melanoma): 25 nM | TGI (LOX IMVI melanoma): 0.0655 µM | GI50 (SF-539 CNS): 65.9 nM | TGI (SF-539 CNS): 0.155 µM | GI50 (SNB-75 CNS): 42.1 nM | TGI (SNB-75 CNS): 0.132 µM | GI50 (MALME-3M melanoma): 43.1 nM | TGI (MALME-3M melanoma): 0.174 µM | GI50 (SK-MEL-5 melanoma): 55.5 nM | TGI (SK-MEL-5 melanoma): 0.142 µM

Cn1cc(-c2ccc(CNc3cc(-c4cnc5cc(OCCCN6CCCC6)ccn45)ncn3)cc2)cn1
GI50 (SW-620 colon): 1610 nM | TGI (SW-620 colon): 3.17 µM | GI50 (UO-31 renal): 1410 nM | TGI (UO-31 renal): 2.82 µM | GI50 (LOX IMVI melanoma): 1750 nM | TGI (LOX IMVI melanoma): 3.4 µM | GI50 (SF-539 CNS): 1170 nM | TGI (SF-539 CNS): 2.46 µM | GI50 (CAKI-1 renal): 1.65 µM | TGI (CAKI-1 renal): 3.15 µM | GI50 (SNB-75 CNS): 1790 nM | TGI (SNB-75 CNS): 7.78 µM | GI50 (MALME-3M melanoma): 1280 nM | TGI (MALME-3M melanoma): 2.94 µM | GI50 (SK-MEL-5 melanoma): 1510 nM | TGI (SK-MEL-5 melanoma): 2.85 µM | GI50 (NCI-H522 lung): 18.6 µM | TGI (NCI-H522 lung): 37.8 µM

CCCCC[C@H]1C/C=C2/C(=O)C(Cl)=C[C@@H]2C/C=C\CCCC(=O)O[C@@H](CCCCC)C/C=C2/C(=O)C(Cl)=C[C@@H]2C/C=C\CCCC(=O)O1
GI50 (SF-295 CNS): 0.362 µM | TGI (SF-295 CNS): 0.861 µM | GI50 (SW-620 colon): 512 nM | TGI (SW-620 colon): 1.77 µM | GI50 (UO-31 renal): 269 nM | TGI (UO-31 renal): 0.508 µM | GI50 (LOX IMVI melanoma): 201 nM | TGI (LOX IMVI melanoma): 0.437 µM | GI50 (SF-539 CNS): 518 nM | TGI (SF-539 CNS): 1.97 µM | GI50 (SNB-75 CNS): 544 nM | TGI (SNB-75 CNS): 3.89 µM | GI50 (MALME-3M melanoma): 504 nM | TGI (MALME-3M melanoma): 1.85 µM | GI50 (SK-MEL-5 melanoma): 325 nM | TGI (SK-MEL-5 melanoma): 0.659 µM | GI50 (NCI-H522 lung): 0.352 µM | TGI (NCI-H522 lung): 0.78 µM

Reference: PubChem BioAssay (NCI)
